Measurements as given in patent US8993585B2, “Cyclic amine substituted pyrimidinediamines as PKC inhibitors” (Rigel Pharmaceuticals, Inc., priority 2007, dated 2015).

Test system: Human primary T cells
Assay: IL-2 ELISA, Human Primary T Cell, Anti-CD3+CD28+ (Example 3)
Format: cell-based
Settings: anti-CD3+CD28 stimulation
In short: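 IL-2 was read by ELISA after stimulation on wells pre-coated with 1 ug/ml αCD3 and 5 μg/ml αCD28. Before this, 100,000 human primary T cells per well spent 1 h at 37 °C with test compound in Yssel's medium. The counter-screen replaced antibody stimulation with PMA (0.5 ng/ml final) and ionomycin (0.1 uM final).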

SMILES	IC50 (24 hours)	further results
CN1C(C)(C)CC(Nc2nc(Nc3ccc(N4CCN(S(C)(=O)=O)CC4)c(C#N)c3)ncc2C#N)CC1(C)C [Compound I-196]	971 nM	
Cc1cc(NC2CC(C)(C)N(C)C(C)(C)C2)nc(Nc2ccc(N3CCN(S(C)(=O)=O)CC3)c(Cl)c2)n1 [IV-3]		IC50 (Homo sapiens, T-cell, 24 h): 4390 nM
CC1(C)CC(Nc2nc(Nc3cc(Cl)cc(Cl)c3)ncc2F)CC(C)(C)N1CCN [Compound I-447]	910 nM	
CN1C(C)(C)CC(Nc2nc(Nc3nc(-c4ccc(C(F)(F)F)cc4)cs3)ncc2F)CC1(C)C [II-140]		IC50 (Homo sapiens, T-cell, 24 h): 590 nM
CCn1c(=O)oc2ccc(Nc3ncc(F)c(NC4CC(C)(C)N(C)C(C)(C)C4)n3)cc21 [II-173]		IC50 (Homo sapiens, T-cell, 24 h): 1320 nM
CCCN1C(=O)C2(CCC2)Oc2cc(Nc3ncc(F)c(NC4CC(C)(C)N(C)C(C)(C)C4)n3)ccc21 [II-166]	440 nM	
CN1C(C)(C)CC(Nc2nc(Nc3cc(-c4cc5ccccc5s4)cc(C(F)(F)F)c3)ncc2F)CC1(C)C [Compound I-205]	965 nM	
Cc1ccc(C)n1-c1cc(Nc2ncc(F)c(NC3CC(C)(C)N(C)C(C)(C)C3)n2)ccc1OCCN1CCCC1 [Compound I-440]		IC50 (Homo sapiens, T-cell, 24 h): 520 nM
COc1cc(Nc2ncc(F)c(N(Cc3ccc4ccccc4n3)C3CC(C)(C)N(C)C(C)(C)C3)n2)cc(OC)c1 [Compound I-322]		IC50 (Homo sapiens, T-cell, 24 h): 5790 nM
Cc1ccc(Nc2ncc(F)c(NC3CC(C)(C)N(C)C(C)(C)C3)n2)cc1-n1cnnn1 [Compound I-398]	50 nM	
COc1ccc(-c2csc(Nc3ncc(F)c(NC4CC(C)(C)N(C)C(C)(C)C4)n3)n2)cc1F [II-137]		IC50 (Homo sapiens, T-cell, 24 h): 460 nM
CC1(C)CC(Nc2nc(Nc3ccc4c(c3)OC3(CCCCC3)O4)ncc2F)CC(C)(C)N1 [II-121]		IC50 (Homo sapiens, T-cell, 24 h): 1810 nM
COc1ccc(Nc2ncc(F)c(NC3CC(C)(C)N(C)C(C)(C)C3)n2)cc1-c1cccnc1 [Compound I-194]	804 nM	
COc1cc(Nc2ncc(F)c(NC3CC(C)(C)NC(C)(C)C3)n2)cc(-n2cnnn2)c1 [Compound I-388]	110 nM	
COc1cc(Nc2ncc(C(N)=O)c(NC3CC(C)(C)NC(C)(C)C3)n2)cc(-n2cnnn2)c1 [Compound I-389]	5420 nM	
COc1cc(Nc2ncc(C#C[Si](C)(C)C)c(NC3CC(C)(C)N(C)C(C)(C)C3)n2)cc(OC)c1 [Compound I-430]		IC50 (T-cell, 24 hours): 4470 nM
Cc1ccc(C)n1-c1cc(Nc2ncc(F)c(NC3CC(C)(C)NC(C)(C)C3)n2)ccc1OCCN1CCOCC1 [Compound I-441]		IC50 (Homo sapiens, T-cell, 24 h): 1690 nM
Cc1ccc(Nc2ncc(F)c(N(Cc3ccc4ccccc4c3)C3CC(C)(C)N(C)C(C)(C)C3)n2)cc1C#N [Compound I-315]		IC50 (Homo sapiens, T-cell, 24 h): 3390 nM
CN1C(C)(C)CC(N(Cc2ccc3ccccc3c2)c2nc(Nc3ccc4c(c3)OCCO4)ncc2F)CC1(C)C [II-87]		IC50 (Homo sapiens, T-cell, 24 h): 3810 nM
CN1C(C)(C)CC(Nc2nc(Nc3ccc(N4CCSCC4)c(C(F)(F)F)c3)ncc2F)CC1(C)C [Compound I-331]	806 nM	
CN1C(C)(C)CC(Nc2nc(Nc3ccc4c(c3)n(C)c(=O)n4C)ncc2F)CC1(C)C [II-56]		IC50 (Homo sapiens, T-cell, 24 h): 968 nM
CC(C)N1C(=O)C(C)(C)Oc2cc(Nc3ncc(C#N)c(NC4CC(C)(C)NC(C)(C)C4)n3)ccc21 [II-75]	476 nM	
COc1ccc(Nc2ncc(F)c(N(Cc3ccccc3)C3CC(C)(C)N(C)C(C)(C)C3)n2)cc1OC(F)F [Compound I-309]		IC50 (Homo sapiens, T-cell, 24 h): 642 nM

SMILES	IC50 (24 hours)	further results
CN1CCN(c2ncc(Nc3ncc(F)c(NC4CC(C)(C)N(C)C(C)(C)C4)n3)cc2Cl)CC1 [Compound I-288]	374 nM	
COC(=O)N1CCN(c2ccc(Nc3ncc(F)c(NC4CC(C)(C)N(C)C(C)(C)C4)n3)cc2C(F)(F)F)CC1 [Compound I-47]	136 nM	
CSc1nnnn1-c1cccc(Nc2ncc(C(N)=O)c(NC3CC(C)(C)NC(C)(C)C3)n2)c1 [Compound I-457]	1670 nM	
CC(=O)N1C(C)(C)CC(Nc2nc(Nc3ccc(N4CCN(C)CC4)c(C(F)(F)F)c3)ncc2F)CC1(C)C [Compound I-219]	20800 nM	
Cc1nc2ccc(Nc3ncc(F)c(NC4CC(C)(C)N(C)C(C)(C)C4)n3)cc2[nH]1 [II-9]		IC50 (Homo sapiens, T-cell, 24 h): 12300 nM
CN1CC2(C)CN(c3ccc(Nc4ncc(F)c(NC5CC(C)(C)N(C)C(C)(C)C5)n4)cc3C(F)(F)F)CC(C)(C1)C2 [Compound I-259]	2540 nM	
CC1(C)CC(Nc2nc(Nc3cc(O)cc(O)c3)ncc2F)CC(C)(C)N1 [Compound I-383]	30000 nM	
Cc1cnc(Nc2ccc(S(N)(=O)=O)cc2)nc1NC1CC(C)(C)N(C)C(C)(C)C1 [Compound I-13]	7680 nM	
COc1ccc(Nc2ncc(F)c(NC3CC(C)(C)N(C)C3(C)C)n2)cc1OC (stereo not drawn) [Compound I-281, 5-Fluoro-N2-(3,4-dimethoxy)phenyl-N4-(1,2,2,5,5-pentamethylpyrrolidin-3-yl)-2,4-pyrimidinediamine]	17100 nM	
COc1ccc(Nc2ncc(F)c(NC3CC(C)(C)N(C(C)=O)C(C)(C)C3)n2)cc1Cl [Compound I-213]	19600 nM	
CN1C(C)(C)CC(Nc2nc(Nc3ccc4c(c3)OCC(=O)N4CC3CC3)ncc2F)CC1(C)C [II-77]	101 nM	
Cc1cc(Nc2ncc(F)c(NC3CC(C)(C)N(C)C(C)(C)C3)n2)ccc1-c1cnn(C)c1 [Compound I-151]	635 nM	
CN1C(C)(C)CC(Nc2nc(Nc3ccc(F)c(-c4ccncc4)c3)ncc2F)CC1(C)C [Compound I-191]	700 nM	
CN1CCN(S(=O)(=O)c2ccc(Nc3ncc(F)c(NC4CC(C)(C)N(C)C(C)(C)C4)n3)cc2Cl)CC1 [Compound I-45]	2370 nM	
CN1C(=O)CCc2cc(Nc3ncc(F)c(NC4CC(C)(C)N(C)C(C)(C)C4)n3)ccc21 [II-4]		IC50 (Homo sapiens, T-cell, 24 h): 1720 nM
Cc1nccc(-c2cccc(Nc3ncc(F)c(NC4CC(C)(C)N(C)C(C)(C)C4)n3)c2)n1 [Compound I-69]	2390 nM	
Cc1ccc(Nc2ncc(C)c(NC3CC(C)(C)N(C)C(C)(C)C3)n2)cc1S(N)(=O)=O [Compound I-15]	6850 nM	
CN1C(C)(C)CC(Nc2nc(Nc3ccc(C(N)=O)cc3)ncc2F)CC1(C)C [Compound I-23]	1680 nM	
COC(=O)CCN1C(C)(C)CC(Nc2nc(Nc3cc(OC)cc(OC)c3)ncc2F)CC1(C)C [Compound I-292]		IC50 (Homo sapiens, T-cell, 24 h): 2480 nM
CN1CCN(c2c(F)cc(Nc3ncc(F)c(NC4CC(C)(C)N(C)C(C)(C)C4)n3)cc2F)CC1 [Compound I-40]	461 nM	
CSc1nnnn1-c1cccc(Nc2ncc(F)c(NC3CC(C)(C)N(C)C(C)(C)C3)n2)c1 [Compound I-399]	50 nM	
CCN1C(=O)COc2cc(Nc3ncc(F)c(NC4CC(C)(C)N(C)C(C)(C)C4)n3)ccc21 [II-58]		IC50 (Homo sapiens, T-cell, 24 h): 231 nM
Cc1cc(Nc2ncc(F)c(NC3CC(C)(C)N(C)C(C)(C)C3)n2)ccc1-n1cnnn1 [Compound I-397]	1980 nM	

SMILES	IC50 (24 hours)	further results
CN1C(C)(C)CCC(Nc2nc(Nc3ccc(N4CCOCC4)c(C(F)(F)F)c3)ncc2F)CC1(C)C (stereo not drawn) [Compound I-261, 5-Fluoro-N2-[4-morpholine-3-trifluoromethyl]phenyl-N4-(1,2,2,7,7-pentamethylazepan-4-yl)-2,4-pyrimidinediamine]	4670 nM	
Cc1ccc(Nc2ncc(C(F)(F)F)c(NC3CC(C)(C)N(C)C(C)(C)C3)n2)cc1C#N [Compound I-171]	680 nM	
CN1C(C)(C)CC(Nc2nc(Nc3ccc(C#N)c(Cl)c3)ncc2C(F)(F)F)CC1(C)C [Compound I-33]	532 nM	
Cc1cc(Nc2ncc(F)c(NC3CC(C)(C)N(C)C(C)(C)C3)n2)ccc1Br [Compound I-111]	490 nM	
CN1C(C)(C)CC(Nc2nc(Nc3ccc4c(c3)OCCO4)ncc2Br)CC1(C)C [II-127]		IC50 (Homo sapiens, T-cell, 24 h): 450 nM
CN1C(C)(C)CC(N(Cc2cc3c(cc2Br)OCO3)c2nc(Nc3ccc4c(c3)OCCO4)ncc2F)CC1(C)C [II-90]		IC50 (Homo sapiens, T-cell, 24 h): 5580 nM
COc1cc(F)cc(Nc2ncc(F)c(NC3CC(C)(C)N(C)C(C)(C)C3)n2)c1 [Compound I-443]	400 nM	
CC1CN(c2ccc(Nc3ncc(F)c(NC4CC(C)(C)N(C)C(C)(C)C4)n3)cc2C(F)(F)F)CC(C)O1 (stereo not drawn) [Compound I-225]	755 nM	
CCOC(=O)c1cnc(Nc2ccc(N3CCN(S(C)(=O)=O)CC3)c(C(F)(F)F)c2)nc1NC1CC(C)(C)N(C)C(C)(C)C1 [Compound I-83]	7760 nM	
COc1cc(Nc2ncc(F)c(NC3CC(C)(C)N(C)C(C)(C)C3)n2)ccc1NC(=O)c1ccco1 [Compound I-353]	1540 nM	
Cc1cc(C)cc(Nc2ncc(C)c(NC3CC(C)(C)N(C)C(C)(C)C3)n2)c1 [Compound I-17]	963 nM	
CN1C(C)(C)CC(Nc2nc(Nc3ccc(-c4ccncc4)c(Cl)c3)ncc2F)CC1(C)C [Compound I-99]	304 nM	
CN1C(C)(C)CC(Nc2nc(Nc3ccc4c(c3)OC(C)(C)C(=O)N4CCCF)ncc2C#N)CC1(C)C [II-81]		IC50 (Homo sapiens, T-cell, 24 h): 567 nM
Cc1ccc(Nc2ncc(Br)c(NC3CC(C)(C)N(C)C(C)(C)C3)n2)cc1C#N [Compound I-277]	206 nM	
COc1ccc(Nc2ncc(F)c(NC3CC(C)(C)N(C)C(C)(C)C3)n2)cc1-c1cnco1 [Compound I-369]	624 nM	
COc1cc(Nc2ncc(F)c(NC3CC(C)(C)NC(C)(C)C3)n2)cc(-n2nnnc2C)c1 [Compound I-372]	92.1 nM	
COc1cc(Nc2ncc(F)c(NC3CC(C)(C)N(C)C(C)(C)C3)n2)ccc1N1CCN(C)CC1 [Compound I-55]	1570 nM	
CN1C(C)(C)CC(Nc2nc(Nc3ccc(-n4cccc4)c(C#N)c3)ncc2C(F)(F)F)CC1(C)C [Compound I-172]	669 nM	
COc1cc(Nc2ncc(F)c(NC3C[C@H](C)N(C)[C@@H](C)C3)n2)cc(-n2nnnc2C)c1 (stereo partly drawn) [IV-1, 5-Fluoro-N2-[3-methoxy-5-(5-methyl-tetrazol-1-yl)]phenyl-N4-(1,2,6,-trimethylpiperidin-4-yl)-2,4-pyrimidinediamine, trans isomer]		IC50 (Homo sapiens, T-cell, 24 h): 176 nM
CN1C(C)(C)CC(Nc2nc(Nc3ccc4c(c3)OCO4)ncc2F)CC1(C)C [II-32]	864 nM	
COc1ccc(Nc2ncc(Br)c(NC3CC(C)(C)N(C)C(C)(C)C3)n2)cc1C(F)(F)F [Compound I-272]	826 nM	
CN1C(C)(C)CC(Nc2nc(Nc3ccc4c(c3)OC(C)(C)C(=O)N4CC3CC3)ncc2F)CC1(C)C [II-76]	178 nM	
CCOC(=O)c1cnc(Nc2ccc(N3CCN(C)CC3)c(C(F)(F)F)c2)nc1NC1CC(C)(C)N(C)C(C)(C)C1 [Compound I-82]	3210 nM	
